This is an account of results in publication PMC5303695 (Science (New York, N.Y.), 2016).

The target of this test is PodA30–162 (Mycolicibacterium fortuitum, UniProt K0V2D8). Nature of the test: X-ray crystal structure, […] Å. As to conditions: co-crystal; solvent-exposed active site, stacking with F70. The format is binding.

Turning to `Oc1cccc2nc3ccccc3nc12` [1-hydroxyphenazine], the “X-ray crystal structure, 1.8 Å” value is given as “Crystal formation occurred only in the presence of 1-OH-PHZ, which was visible in a putative”.
